Reference: patent US9617222B1, “Alkynyl indazole derivative and use thereof” (SENJU PHARMACEUTICAL CO., LTD., priority 2014, dated 2017)
Values after ≈ are worked out from the molar mass of the structure shown.

Tested on: not listed separately
Assay: Solubility test in 0.1% phosphate buffer solution (pH 7.0)
Format: physicochemical
Conditions: aqueous buffer, thermodynamic from solid; 0.1% phosphate buffer solution (pH 7.0), room temperature overnight
Description: The mixture was subjected to ultrasonic irradiation for 30 seconds, and then shaken at room temperature overnight. The resulting suspension was left at rest at room temperature for 30 minutes, then filtered through a chromatography disc (0.20 μm) to prepare a sample solution. The sample solution and the standard solution were analyzed by LC-MS (product name: ACQUITY UPLC H-CLASS SYSTEM and Xevo TQ-S, produced by Nihon Waters K.K.), and a solubility was calculated from the obtained peak area value by an external standard method.

solubility [µg/mL]	Structure (SMILES)
29 (≈ 42.8 µM)	CNC(=O)c1ccccc1Sc1ccc2c(C#Cc3ccc(NC(=O)NCCOCCOCCOCCOCCOC)cn3)n[nH]c2c1 [Compound 37, 2-{[3-({5-[3-(2,5,8,11,14-pentaoxahexadecane-16-yl)ureido]pyridine-2-yl}ethynyl)-1H-indazol-6-yl]thio}-N-methylbenzamide]
0.52 (≈ 0.861 µM)	CNC(=O)c1ccccc1Sc1ccc2c(C#Cc3ccc(NC(=O)COCCOCCOCCOC)cn3)n[nH]c2c1 [Compound 41]
0.38 (≈ 0.601 µM)	CNC(=O)c1ccccc1Sc1ccc2c(C#Cc3ccc(NC(=O)OCCOCCOCCOCCOC)cc3)n[nH]c2c1 [Compound 17, 2,5,8,11-tetraoxatridecane-13-yl {4-[(6-{[2-(methylcarbamoyl)phenyl]thio}-1H-indazol-3-yl)ethynyl]phenyl}carbamate]
0.86 (≈ 1.27 µM)	CNC(=O)c1ccccc1Sc1ccc2c(C#Cc3ccc(NC(=O)OCCOCCOCCOCCOCCOC)cc3)n[nH]c2c1 [Compound 18, 2,5,8,11,14-pentaoxahexadecane-16-yl {4-[(6-{[2-(methylcarbamoyl)phenyl]thio}-1H-indazol-3-yl)ethynyl]phenyl}carbamate]
16 (≈ 25.3 µM)	CNC(=O)c1ccccc1Sc1ccc2c(C#Cc3ccc(NC(=O)NCCOCCOCCOCCOC)cn3)n[nH]c2c1 [Compound 36, 2-{[3-({5-[3-(2,5,8,11-tetraoxatridecane-13-yl)ureido]pyridine-2-yl}ethynyl)-1H-indazol-6-yl]thio}-N-methylbenzamide]
9.9 (≈ 14.6 µM)	CNC(=O)c1ccccc1Sc1ccc2c(C#Cc3cncc(NC(=O)NCCOCCOCCOCCOCCOC)c3)n[nH]c2c1 [Compound 31, 2-{[3-({5-[3-(2,5,8,11,14-pentaoxahexadecane-16-yl)ureido]pyridine-3-yl}ethynyl)-1H-indazol-6-yl]thio}-N-methylbenzamide]
0.17 (≈ 0.289 µM)	CNC(=O)c1ccccc1Sc1ccc2c(C#Cc3ccc(NCCOCCOCCOCCOC)cc3)n[nH]c2c1 [Compound 28, 2-{[3-({4-[(2,5,8,11-tetraoxatridecane-13-yl)amino]phenyl}ethynyl)-1H-indazol-6-yl]thio}-N-methylbenzamide]
1.2 (≈ 1.9 µM)	CNC(=O)c1ccccc1Sc1ccc2c(C#Cc3ccc(NC(=O)NCCOCCOCCOCCOC)cc3)n[nH]c2c1 [Compound 9, 2-{[3-({4-[3-(2,5,8,11-tetraoxatridecane-13-yl)ureido]phenyl}ethynyl)-1H-indazol-6-yl]thio}-N-methylbenzamide]
0.99 (≈ 1.46 µM)	CNC(=O)c1ccccc1Sc1ccc2c(C#Cc3cccc(NC(=O)NCCOCCOCCOCCOCCOC)c3)n[nH]c2c1 [Compound 5, 2-{[3-({3-[3-(2,5,8,11,14-pentaoxahexadecane-16-yl)ureido]phenyl}ethynyl)-1H-indazol-6-yl]thio}-N-methylbenzamide]
2.6 (≈ 3.84 µM)	CNC(=O)c1ccccc1Sc1ccc2c(C#Cc3ccc(NC(=O)NCCOCCOCCOCCOCCOC)nc3)n[nH]c2c1 [Compound 34, 2-{[3-({6-[3-(2,5,8,11,14-pentaoxahexadecane-16-yl)ureido]pyridine-3-yl}ethynyl)-1H-indazol-6-yl]thio}-N-methylbenzamide]
0.89 (≈ 1.41 µM)	CNC(=O)c1ccccc1Sc1ccc2c(C#Cc3ccc(NCCOCCOCCOCCOCCOC)cc3)n[nH]c2c1 [Compound 29, 2-{[3-({4-[(2,5,8,11,14-pentaoxahexadecane-16-yl)amino]phenyl}ethynyl)-1H-indazol-6-yl]thio}-N-methylbenzamide]
0.58 (≈ 0.985 µM)	CNC(=O)c1ccccc1Sc1ccc2c(C#Cc3cncc(NC(=O)NCCOCCOCCOC)c3)n[nH]c2c1 [Compound 30, 2-[(3-{[5-(3-{2-[2-(2-methoxyethoxy)ethoxy]ethyl}ureido)pyridine-3-yl]ethynyl}-1H-indazol-6-yl)thio]-N-methylbenzamide]
2.5 (≈ 3.7 µM)	CNC(=O)c1ccccc1Sc1ccc2c(C#Cc3ccc(NC(=O)NCCOCCOCCOCCOCCOC)cc3)n[nH]c2c1 [Compound 10, 2-{[3-({4-[3-(2,5,8,11,14-pentaoxahexadecane-16-yl)ureido]phenyl}ethynyl)-1H-indazol-6-yl]thio}-N-methylbenzamide]
0.31 (≈ 0.491 µM)	CNC(=O)c1ccccc1Sc1ccc2c(C#Cc3cccc(NC(=O)NCCOCCOCCOCCOC)c3)n[nH]c2c1 [Compound 4]
3.3 (≈ 4.78 µM)	CNC(=O)c1ccccc1Sc1ccc2c(C#Cc3ccc(NC(=O)COCCOCCOCCOCCOCCOC)cc3)n[nH]c2c1 [Compound 22, N-{4-[(6-{[2-(methylcarbamoyl)phenyl]thio}-1H-indazol-3-yl)ethynyl]phenyl}-2,5,8,11,14,17-hexaoxanonadecane-19-amide]

Structure (SMILES)	solubility [µg/mL]
CNC(=O)c1ccccc1Sc1ccc2c(C#Cc3ccc(NC(=O)NCCOCCOCCN)cc3)n[nH]c2c1 [Compound 43, 2-[(3-{[4-(3-{2-[2-(2-aminoethoxy)ethoxy]ethyl}ureido)phenyl]ethynyl}-1H-indazol-6-yl)thio]-N-methylbenzamide]	32 (≈ 55.9 µM)
CNC(=O)c1ccccc1Sc1ccc2c(C#Cc3ccc(NC(=O)NCCOCCOCCN4CCOCC4)cc3)n[nH]c2c1 [Compound 46, N-methyl-2-[(3-{[4-(3-{2-[2-(2-morpholinoethoxy)ethoxy]ethyl}ureido)phenyl]ethynyl}-1H-indazol-6-yl)thio]benzamide]	1.4 (≈ 2.18 µM)

Tested on: Human Retinal Microvascular Endothelial (hRMVE) Cells (hRMVEC)
Assay: Growth inhibition of hRMVE cells under VEGF stimulation (MTT assay)
Format: cell-based
Conditions: recombinant human VEGF, 48 hours, read-out: Cell Growth Inhibition Activity

Structure (SMILES)	IC50 [nM]
CNC(=O)c1ccccc1Sc1ccc2c(C#Cc3cccc(NC(=O)NCCOCCOCCOC)c3)n[nH]c2c1 [Compound 3, 2-[(3-{[3-(3-{2-[2-(2-methoxyethoxy)ethoxy]ethyl}ureido)phenyl]ethynyl}-1H-indazol-6-yl)thio]-N-methylbenzamide]	11
CNC(=O)c1ccccc1Sc1ccc2c(C#Cc3ccc(NC(=O)NCCOCCOCCN)cc3)n[nH]c2c1 [Compound 43, 2-[(3-{[4-(3-{2-[2-(2-aminoethoxy)ethoxy]ethyl}ureido)phenyl]ethynyl}-1H-indazol-6-yl)thio]-N-methylbenzamide]	4
CNC(=O)c1ccccc1Sc1ccc2c(C#Cc3ccc(NC(=O)NCCOCCOCCN4CCOCC4)cc3)n[nH]c2c1 [Compound 46, N-methyl-2-[(3-{[4-(3-{2-[2-(2-morpholinoethoxy)ethoxy]ethyl}ureido)phenyl]ethynyl}-1H-indazol-6-yl)thio]benzamide]	3.2
CNC(=O)c1ccccc1Sc1ccc2c(C#Cc3cccc(NCCOCCOCCOC)c3)n[nH]c2c1 [Compound 25, 2-[(3-{[3-({2-[2-(2-methoxyethoxy)ethoxy]ethyl}amino)phenyl]ethynyl}-1H-indazol-6-yl)thio]-N-methylbenzamide]	10
CNC(=O)c1ccccc1Sc1ccc2c(C#Cc3ccc(NC(=O)COCCOCCOCCOC)nc3)n[nH]c2c1 [Compound 38, N-{5-[(6-{[2-(methylcarbamoyl)phenyl]thio}-1H-indazol-3-yl)ethynyl]pyridine-2-yl}-2,5,8,11-tetraoxatridecane-13-amide]	3.5
CNC(=O)c1ccccc1Sc1ccc2c(C#Cc3ccc(NC(=O)COCCOCCOCCOC)cc3)n[nH]c2c1 [Compound 20, N-{4-[(6-{[2-(methylcarbamoyl)phenyl]thio}-1H-indazol-3-yl)ethynyl]phenyl}-2,5,8,11-tetraoxatridecane-13-amide]	1.7
CNC(=O)c1ccccc1Sc1ccc2c(C#Cc3cccc(NC(=O)OCCOCCOCCOC)c3)n[nH]c2c1 [Compound 13, 2-[2-(2-methoxyethoxy)ethoxy]ethyl {3-[(6-{[2-(methylcarbamoyl)phenyl]thio}-1H-indazol-3-yl)ethynyl]phenyl}carbamate]	9.3
CNC(=O)c1ccccc1Sc1ccc2c(C#Cc3ccc(NC(=O)NCCOCCOCCOC)nc3)n[nH]c2c1 [Compound 32, 2-[(3-{[6-(3-{2-[2-(2-methoxyethoxy)ethoxy]ethyl}ureido)pyridine-3-yl]ethynyl}-1H-indazol-6-yl)thio]-N-methylbenzamide]	3.8
